The values below come from PubChem BioAssay (NCI).

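Values below derive from 48-hour exposures of cells grown in 96-well plates, with endpoints linearly interpolated between the two concentrations bracketing the appropriate inhibition level. GI50 = concentration required for 50% inhibition of growth. TGI is the concentration that stops growth completely.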 Starred links: 1 amine or outer side, 2 acyl side, 3 side chain; linkers in the order of their positions; H or OH if unused. Positions of bridges follow the written chain, without caps; N, C: chain ends. Non-standard residues stand in square brackets, D forms with d. Residues, ends and D or L forms follow the SMILES beside them. Chains are numbered I, II in the order given. Actinocin(1to9) = Cc1c2oc3c(C)ccc(C(=O)[*:2])c3nc-2c(C(=O)[*:1])c(N)c1=O; NMeV = CN[CH](C(=O)O)C(C)C; Sar = CNCC(=O)O Some results are limits rather than exact numbers.

Among the test systems are NCI-H460 lung; U251 CNS; CCRF-CEM leukemia; SF-295 CNS; HOP-92 NSCLC; DU-145 prostate; HT29 colon; SNB-19 CNS; SF-268 CNS; SR leukemia.
Common to all, as to test: NCI anticancer screen, dose series, 48 h

As for `O=C(CSc1nc2ccc([N+](=O)[O-])cc2s1)c1ccc2ccccc2c1`, the TGI with NCI-H460 lung, in the assay on U251 CNS, in the assay on CCRF-CEM leukemia, in the assay on SF-295 CNS, with HOP-92 NSCLC and in the assay with DU-145 prostate was more than 100 µM in each case. In addition, the TGI in the assay with HT29 colon, with SNB-19 CNS and with SF-268 CNS was more than 100 µM throughout.

Turning to `Nc1ncnc2c1sc1nc3ccccc3n12`, the TGI in the assay on NCI-H460 lung, in the assay on U251 CNS, in the assay on CCRF-CEM leukemia, in the assay with SF-295 CNS, with HOP-92 NSCLC and with DU-145 prostate was more than 100 µM throughout. For the same compound, the TGI with HT29 colon, in the assay with SNB-19 CNS and with SF-268 CNS was more than 100 µM in each case.

For the compound `CCC(C)C1NC(=O)C(NC(=O)c2c3nc4c(C(=O)NC5C(=O)NC(C(C)CC)C(=O)N6CCCC6C(=O)N(C)CC(=O)N(C)C(C(C)C)C(=O)OC5C)ccc(C)c4oc-3c(C)c(=O)c2N)C(C)OC(=O)C(C(C)C)N(C)C(=O)CN(C)C(=O)C2CCCN2C1=O` (stereo not drawn) (I: TIP[Sar][NMeV] / II: TIP[Sar][NMeV]; ester I:1-I:C, II:1-II:C; linker I:N-II:N via Actinocin(1to9); configuration not given here), the TGI in the assay with U251 CNS came to 10.9 µM; in the assay with CCRF-CEM leukemia, 0.0106 µM; in the assay with HOP-92 NSCLC, 0.085 µM; in the assay with HT29 colon, 11.5 µM; in the assay with SNB-19 CNS, 0.0111 µM; in the assay with SF-268 CNS, 0.0586 µM. Also, the TGI in the assay on SR leukemia was 0.00257 µM.

As for `CC(C)(C)OC(=O)NC(CCCCNC(=O)OCc1ccccc1)C(=O)NCCNc1ccc(NCCNC(=O)C(CCCCNC(=O)OCc2ccccc2)NC(=O)OC(C)(C)C)c2c1C(=O)c1ccccc1C2=O` (stereo not drawn), the TGI was more than 100 µM in the assay on NCI-H460 lung; 17.1 µM with U251 CNS; more than 100 µM with CCRF-CEM leukemia; more than 100 µM in the assay with SF-295 CNS; more than 71.4 µM with HOP-92 NSCLC; more than 100 µM with DU-145 prostate. Besides, the TGI in the assay with HT29 colon was more than 100 µM; with SNB-19 CNS it was 45.9 µM; with SF-268 CNS, more than 64.6 µM; with SR leukemia, more than 100 µM.

In the case of `Cn1c(=O)[nH]c2nncnc2c1=O`, the TGI in the assay with NCI-H460 lung was 245 µM; in the assay with U251 CNS, 312 µM; in the assay with CCRF-CEM leukemia, more than 625 µM; with SF-295 CNS, 325 µM; with HOP-92 NSCLC, 71.2 µM; with HT29 colon, more than 561 µM. The TGI is 419 µM with SNB-19 CNS and more than 625 µM in the assay with SF-268 CNS.

Regarding `O=c1[nH]c(Nc2ccc(Cl)c(C(F)(F)F)c2)nc2nc[nH]c12`, the TGI with NCI-H460 lung is more than 100 µM; with U251 CNS, more than 100 µM; in the assay on CCRF-CEM leukemia it was 45.4 µM; in the assay with SF-295 CNS, more than 100 µM; with HOP-92 NSCLC it was more than 100 µM; in the assay on DU-145 prostate it was more than 100 µM. For the same compound, the TGI in the assay on HT29 colon, in the assay with SNB-19 CNS and with SF-268 CNS was more than 100 µM in each case.

`Cc1ccccc1N=Nc1c(O)c(S(=O)(=O)O)cc2cc(S(=O)(=O)O)ccc12`: the TGI in the assay on NCI-H460 lung, in the assay on U251 CNS, in the assay with CCRF-CEM leukemia, in the assay with SF-295 CNS, with HOP-92 NSCLC and in the assay with DU-145 prostate was more than 100 µM in each case. The TGI in the assay with HT29 colon, in the assay with SNB-19 CNS, in the assay with SF-268 CNS and in the assay with SR leukemia was more than 100 µM throughout.

`COc1ccc(C(=O)C2=NON3OC23C(=O)c2ccc(OC)cc2)cc1` (stereo not drawn): the TGI in the assay with NCI-H460 lung worked out at 40 µM; in the assay on U251 CNS it was 30.3 µM; in the assay on SF-295 CNS it was 34.1 µM; in the assay on HOP-92 NSCLC, 5.16 µM; with HT29 colon, 52.9 µM; in the assay with SNB-19 CNS, 33.7 µM. Moreover, the TGI with SF-268 CNS stood at 40.2 µM.

Take `COCC1CCCN1c1ccc(C=N/C(C#N)=C(\N)C#N)cc1` (stereo not drawn): the GI50 in the assay on NCI-H460 lung was more than 100 µM; with U251 CNS it was 17.2 µM; in the assay with CCRF-CEM leukemia, 3.22 µM; in the assay with SF-295 CNS, more than 100 µM; with HOP-92 NSCLC, 14.3 µM; with DU-145 prostate, 6.25 µM. In addition, the figures for the GI50 in the assay on SNB-19 CNS and in the assay with SF-268 CNS were 36.7 µM and 67.8 µM, respectively. In addition, the TGI with NCI-H460 lung is more than 100 µM; with U251 CNS it was more than 100 µM; in the assay on CCRF-CEM leukemia, more than 100 µM; with SF-295 CNS it was more than 100 µM; in the assay on HOP-92 NSCLC it was 46 µM; in the assay on DU-145 prostate, more than 100 µM. For the same compound, the TGI in the assay on SNB-19 CNS and with SF-268 CNS was more than 100 µM each time.

As to `OCc1cn(C(c2ccccc2)(c2ccccc2)c2ccccc2)cn1`, the TGI in the assay on NCI-H460 lung is more than 100 µM; with U251 CNS it was more than 100 µM; with CCRF-CEM leukemia, more than 100 µM; in the assay on SF-295 CNS, 89.7 µM; with HOP-92 NSCLC, more than 100 µM; with DU-145 prostate, more than 100 µM. Also, the TGI in the assay with HT29 colon, with SNB-19 CNS and in the assay on SR leukemia was more than 100 µM in each case.

Regarding `COc1ccc2nc3c(C(=O)NCCN(C)C)cccc3cc2c1`, the TGI in the assay with NCI-H460 lung is 3.65 µM; with U251 CNS, 14.2 µM; in the assay with CCRF-CEM leukemia it was 8.14 µM; with SF-295 CNS, 6.2 µM; in the assay on HOP-92 NSCLC, 5.76 µM; in the assay on HT29 colon, 6.37 µM. For the same compound, the TGI was 7.58 µM in the assay on SNB-19 CNS and 12.1 µM in the assay on SF-268 CNS.

With `COc1nc2[nH]ccc2c(=O)[nH]1`, the TGI in the assay on NCI-H460 lung, with U251 CNS, in the assay on CCRF-CEM leukemia, in the assay on SF-295 CNS, in the assay on HOP-92 NSCLC and in the assay on HT29 colon was more than 100 µM in each case. The TGI in the assay on SNB-19 CNS, in the assay on SF-268 CNS and with SR leukemia was more than 100 µM in each case.

On to `CC(C)(C)OC(=O)n1c2ccccc2c2c(=O)nc(N3CCCCC3)sc21`, for which the TGI in the assay on NCI-H460 lung, in the assay with U251 CNS, with CCRF-CEM leukemia, with SF-295 CNS, in the assay on HOP-92 NSCLC and with DU-145 prostate was more than 100 µM in each case. The TGI in the assay on HT29 colon, in the assay on SNB-19 CNS, with SF-268 CNS and in the assay with SR leukemia was more than 100 µM throughout.

On to `Nc1c(C(=O)O)nnc2cc(Cl)c(Cl)cc12`, for which the TGI in the assay with NCI-H460 lung, with U251 CNS, in the assay with CCRF-CEM leukemia, with SF-295 CNS, in the assay with DU-145 prostate and with HT29 colon was more than 100 µM throughout. Further, the TGI with SNB-19 CNS, in the assay on SF-268 CNS and in the assay on SR leukemia was more than 100 µM throughout.

For `COc1cc2oc(=O)ccc2cc1C(=O)CC(C)C`, the TGI with NCI-H460 lung, with U251 CNS, with CCRF-CEM leukemia, in the assay on SF-295 CNS, with HOP-92 NSCLC and in the assay with DU-145 prostate was more than 100 µM throughout. The TGI in the assay with HT29 colon, in the assay on SNB-19 CNS, in the assay with SF-268 CNS and with SR leukemia was more than 100 µM each time.

Turning to `CC(=O)OC1CC[C@@]2(C)C(=CC[C@@H]3[C@@H]2CC[C@]2(C)Nc4nn(S(C)(=O)=O)cc4C[C@@H]32)C1` (stereo partly drawn), the TGI was 72.5 µM with NCI-H460 lung; more than 100 µM in the assay on U251 CNS; 38.5 µM in the assay on CCRF-CEM leukemia; more than 100 µM with SF-295 CNS; more than 100 µM in the assay with HOP-92 NSCLC; more than 100 µM in the assay with DU-145 prostate. Further, the TGI in the assay on HT29 colon was 25.4 µM; in the assay with SNB-19 CNS it was more than 100 µM; in the assay on SR leukemia it was more than 100 µM.

In the case of `N#CC12Cc3cc4c(cc3-c3cccc(c31)CCN2C(=O)c1ccccc1)OCO4` (stereo not drawn), the TGI with U251 CNS was more than 100 µM; in the assay with CCRF-CEM leukemia it was more than 100 µM; in the assay on SF-295 CNS, more than 100 µM; in the assay on HOP-92 NSCLC, 89.5 µM; with HT29 colon, more than 100 µM; with SNB-19 CNS, more than 100 µM. The TGI with SF-268 CNS and in the assay with SR leukemia was more than 100 µM in each case.

With `C[N+]1(CCC(=O)c2ccco2)CC2CCC(CC2)C1` (stereo not drawn), the TGI in the assay with NCI-H460 lung, with U251 CNS, in the assay on SF-295 CNS, with HOP-92 NSCLC, in the assay on DU-145 prostate and in the assay on HT29 colon was more than 100 µM in each case. The TGI in the assay on SNB-19 CNS, in the assay on SF-268 CNS and in the assay with SR leukemia was more than 100 µM in each case.

As for `O=c1ccc2nc3cc(Br)ccc3sc-2c1`, the TGI in the assay with NCI-H460 lung was more than 100 µM; in the assay with U251 CNS, more than 100 µM; with CCRF-CEM leukemia, 72.5 µM; with SF-295 CNS, more than 100 µM; in the assay with HOP-92 NSCLC, more than 100 µM; in the assay on HT29 colon, more than 100 µM. For the same compound, the TGI with SNB-19 CNS, with SF-268 CNS and with SR leukemia was more than 100 µM each time.

Turning to `O=C(O)c1ccc(C(=O)c2ccccc2C(=O)O)cc1C(=O)O`, the TGI with NCI-H460 lung, in the assay on U251 CNS, in the assay on CCRF-CEM leukemia, in the assay with SF-295 CNS, in the assay with HOP-92 NSCLC and in the assay with DU-145 prostate was more than 100 µM throughout. In addition, the TGI in the assay with HT29 colon, in the assay with SNB-19 CNS, in the assay on SF-268 CNS and in the assay with SR leukemia was more than 100 µM each time.

For the compound `COCCNCc1ccc(-c2cc3nccc(Oc4ccc(NC(=S)NC(=O)Cc5ccc(F)cc5)cc4F)c3s2)nc1`, the GI50 in the assay with U251 CNS is 1.53 µM; in the assay on HOP-92 NSCLC, 1.22 µM; with HT29 colon, 1.45 µM; in the assay with SF-268 CNS, 1.88 µM. The TGI was 2.94 µM in the assay with U251 CNS, 4.48 µM in the assay on HOP-92 NSCLC, 3.19 µM in the assay on HT29 colon and 4.73 µM in the assay with SF-268 CNS.

For the compound `CN(C)c1ccc(C=Nc2ccc(Oc3ccc(Cl)cc3)c(Cl)c2)cc1`, the TGI is 42.1 µM in the assay on NCI-H460 lung; 34.7 µM in the assay with U251 CNS; 57.7 µM in the assay on CCRF-CEM leukemia; 50.9 µM with SF-295 CNS; 36.1 µM with HOP-92 NSCLC; 79 µM with DU-145 prostate. In addition, the TGI was 29.6 µM in the assay on HT29 colon, 41.3 µM in the assay with SNB-19 CNS, 28.1 µM with SF-268 CNS and 32.9 µM in the assay on SR leukemia.
